{
  "source": "patent US7776851B2",
  "about": "“Use of neurokinin antagonists in the treatment of urinary incontinence” (Novartis AG, priority 2003, dated 2010)",
  "key": {"[1]": {"system": "conscious guinea pigs", "test": "5-HTP-stimulated micturition (overactive urinary bladder responses) in conscious guinea pigs", "type": "in vivo, guinea pig", "details": "for decrease of micturition volume / decrease of voiding frequency: one hour prior to 5-HTP (10 mg/kg s.c.), assessed over 17 hours, mean±SEM", "protocol": "In conscious guinea pigs, an experimental paradigm is applied to stimulate micturition through subcutaneous administration of 5-hydroxytryptophan (5-HTP, 10 mg/kg). The measurement of both voiding frequency and micturition volume is used to quantify the effects of the compound of formula II (Belis, et al 1996). Vehicle or the compound of formula II (1 and 3 mg/kg) are dosed orally one hour prior to the stimulation with 5-HTP.\nThe effects of vehicle and the compound of formula II are assessed over 17 hours in 4 to 8 animals. […] The compound of formula II attenuates the overactive bladder responses upon stimulation with 5-HTP.\nThe effects are statistically significant at both doses tested (p<0.05; RM ANOVA, post-hoc Tukey test). See also FIG. 1."}, "[2]": {"system": "longitudinal muscle-nerve preparations from the guinea-pig urinary bladder", "test": "Substance P-stimulated detrusor contractility, organ bath", "type": "cell-based", "protocol": "Detrusor contractility is tested in longitudinal muscle-nerve preparations from the guinea-pig urinary bladder (Mackenzie and Burnstock 1984). In organ bath studies, isometric contractile responses are evoked by cumulative application of substance P (0.1 nM up to 30 μM). Substance P stimulates contractions in a concentration-dependent fashion (pD2=6.68±0.23; mean±SEM; n=5 preparations)."}, "[3]": {"details": "5-HTP 10 mg/kg subcutaneous, over 17 hours"}},
  "data": [
    {"molecule": "N[C@@H](Cc1c[nH]c2ccc(O)cc12)C(=O)O", "note": "[S-HTP, 5-hydroxytryptophan, reference compound]", "values": [
      {"measurement": "increase of micturition volume as compared to control animals", "setting": "[1]; [3]", "value": 4.5, "unit": "fold"},
      {"measurement": "increase of voiding frequency as compared to control animals", "setting": "[1]; [3]", "value": 2.7, "unit": "fold"}
    ]},
    {"molecule": "CN(C(=O)c1cc(C(F)(F)F)cc(C(F)(F)F)c1)[C@@H](/C=C/C(=O)N[C@@H]1CCCCNC1=O)Cc1ccc(Cl)c(Cl)c1", "note": "[compound of formula II, (4R)-4-[N′-methyl-N′-(3,5-bistrifluoromethylbenzoyl)amino]-4-(3,4-dichlorobenzyl)-but-2-enoic acid N-[(R)-epsilon-caprolactam-3-yl]-amide]", "values": [
      {"measurement": "Schild plot slope", "setting": "[2]; 10 nM, 100 nM and 1000 nM vs substance P", "value": "−0.98"},
      {"measurement": "pA2 (Schild plot analysis), inhibition of substance P-evoked contractile responses", "setting": "[2]; 10 nM, 100 nM and 1000 nM, competitive, substance P 0.1 nM up to 30 μM cumulative", "value": 7.97},
      {"measurement": "decrease of micturition volume", "setting": "[1]; 1 mg/kg p.o.", "value": "32.9%±4.5%"},
      {"measurement": "decrease of voiding frequency", "setting": "[1]; 1 mg/kg p.o.", "value": "45.4%±7.1%"},
      {"measurement": "decrease of micturition volume", "setting": "[1]; 3 mg/kg p.o.", "value": "36.6%±6.2%"},
      {"measurement": "decrease of voiding frequency", "setting": "[1]; 3 mg/kg p.o.", "value": "26.2%±7.1%"}
    ]},
    {"molecule": "substance P [reference compound]", "values": [
      {"measurement": "pD2, stimulation of isometric contractions", "setting": "[2]; cumulative application 0.1 nM up to 30 μM, mean±SEM, n=5 preparations", "value": "6.68±0.23"}
    ]}
  ]
}
